One data set has as its system P. falciparum D10. Briefly: In vitro antiplasmodial activity, P. falciparum D10 (CQ-S clone). In kind it is cell-based. The note with it: Plasmodium falciparum, D10, read-out: IC50 (nM) D10. The procedure: (§1) Some of the synthesized compounds were tested in vitro against two different strains of P. falciparum, namely 3D7, NF54 and D10 (CQ-S strain) and K1 and W2 (CQ-R strain).

For a further data set, the system named is P. falciparum K1. Nature of the data set: microbe, parasite or virus in culture. In kind it is cell-based. The note with it: Plasmodium falciparum, K1, read-out: IC50 (nM) K1. The method, then:
as §1

Another data set deals with P. falciparum W2. Briefly: microbe, parasite or virus in culture. In kind it is cell-based. The note with it: Plasmodium falciparum, W2, read-out: IC50 (nM) W2. The method, then:
as §1

The test system of a further data set is P. falciparum NF54. Nature of the data set: In vitro antiplasmodial activity, P. falciparum NF54 (CQ-S clone). To be noted: Plasmodium falciparum, NF54, read-out: IC50 (nM) NF54. In kind it is cell-based. The method, then: as §1
The nature of data set [1]: Cytotoxicity on NSO cells. Type of data set: cell-based. The note with it: mouse, NSO cells (plasmocytoma murine cell line); read-out: TC50 (μM) NSO cells.
Data set [2] in a line: Cytotoxicity on Daudi cells. Type of data set: cell-based. To be noted: human, Daudi cells (human lymphoblastoid cell line); read-out: TC50 (μM) Daudi cells.
Data set [3] can be described thus: Cytotoxicity on normal human lymphocytes. Type of data set: cell-based. To be noted: normal human lymphocytes PHA-stimulated; read-out: TC50 (μM) Normal human lymphocytes.
Another data set concerns P. falciparum 3D7. Briefly: In vitro antiplasmodial activity, P. falciparum 3D7 (CQ-S clone). In kind it is cell-based. To be noted: Plasmodium falciparum, 3D7, read-out: IC50 (nM) 3D7. The procedure: as §1
The subject of data set [4] is KB cell (human carcinoma of the nasopharynx cell line). Nature of the data set: Cytotoxicity on KB cells. In kind it is cell-based.
The subject of the next data set is P. Chabaudi AS. Nature of the data set: In vivo activity against P. chabaudi. The note with it: per os; for P. Chabaudi AS (% inhibition at 50 mg/Kg): single dose of 50 mg/Kg.
The next data set concerns Candida albicans MGMI 1. Briefly: Antifungal susceptibility (CLSI broth dilution), Candida albicans. To be noted: CLSI protocol, clinical isolate. Type of data set: cell-based. The text has this:
(§2) (1) National Committee for Clinical Laboratory Standards. (2002). Reference method for broth dilution antifungal susceptibility testing of yeasts—Second Edition: Approved Standard, M27-A2. NCCLS, Wayne, Pa.; and
(§3) (2) National Committee for Clinical Laboratory Standards. Reference method for broth dilution antifungal susceptibility testing of filamentous fungi: Approved Standard, M38-A. 2002; NCCLS, Wayne, Pa.
Background: Broth dilution looks for growth in wells or tubes with falling amounts of substance.

The test system of the next data set is Candida glabrata MGMI 2. Briefly: Antifungal susceptibility (CLSI broth dilution), Candida glabrata. Type of data set: cell-based. The note with it: CLSI protocol, clinical isolate.
Description: as §2, §3

In data set [5] the test system is Candida krusei ATCC ® 6258. Briefly: Antifungal susceptibility (CLSI broth dilution), Candida krusei. Type of data set: cell-based. To be noted: CLSI protocol, quality control strain.
Description: as §2, §3

Data set [6] relates to Candida parapsilosis ATCC ® 22019. Nature of the data set: Antifungal susceptibility (CLSI broth dilution), Candida parapsilosis. Type of data set: cell-based. To be noted: CLSI protocol, quality control strain.
Description: as §2, §3

Data set [7] concerns Cryptococcus neoformans MGMI 3. Briefly: Antifungal susceptibility (CLSI broth dilution), Cryptococcus neoformans. In kind it is cell-based. To be noted: CLSI protocol, clinical isolate.
Description: as §2, §3

Data set [8] has as its system Aspergillus flavus ATCC ® 204304. Briefly: Antifungal susceptibility (CLSI broth dilution), Aspergillus flavus. Type of data set: cell-based. To be noted: CLSI protocol, reference strain.
Description: as §2, §3

The test system of data set [9] is Aspergillus fumigatus MGMI 4. Nature of the data set: Antifungal susceptibility (CLSI broth dilution), Aspergillus fumigatus MGMI 4. In kind it is cell-based. To be noted: CLSI protocol, clinical isolate.
Description: as §2, §3

In data set [10] the test system is Aspergillus fumigatus MGMI 5. Briefly: Antifungal susceptibility (CLSI broth dilution), Aspergillus fumigatus MGMI 5 (ITRA resistant). Type of data set: cell-based. To be noted: for antifungal susceptibility value (MIC), Aspergillus fumigatus MGMI 5: CLSI protocol, clinical isolate, itraconazole resistant.
Description: as §2, §3

For data set [11], the system named is yeast and filamentous fungi. Briefly: Antifungal activity, overall statement. Type of data set: cell-based. To be noted: yeast and filamentous fungi of Table 4.
For data set [12], the system named is β-hematin formation (hemin). Briefly: BHIA (β-hematin inhibitory activity) assay. To be noted: hemin in dimethyl sulfoxide-acetate buffer at pH 5.0, 37° C., 18 h. In kind it is biochemical.
Another data set has as its system P. Berghei ANKA. Briefly: In vivo activity against P. berghei. The note with it: doses up to 100 mg/Kg. The method, then: The experiment was performed at a single dose of 50 mg/Kg. ED50 was determined for 9a in P. berghei ANKA. All compounds were adminstered per os.

The source of these data is US20100093726A1 (Giuseppe CAMPIANI, priority 2007, published 2010).

In general, IC50 refers to the concentration that gives 50% inhibition. `Clc1cccc(C(Nc2ccnc3cc(Cl)ccc23)c2ccc(CN3CCOCC3)cc2)c1` (racemic) [Compound 9b]: the IC50 with P. falciparum D10 came to 142 nM; with P. falciparum K1, 259 nM; in the data set on P. falciparum W2 it was 220 nM; with P. falciparum NF54, 155 nM. For the same compound, the CC50 in [1] amounted to 44.7 µM; in [2] it was 43.9 µM; in [3] it was 40.8 µM.

For the compound `Clc1ccc(C(Nc2ccnc3cc(Cl)ccc23)c2ccc(CN3CCCC3)cc2)cc1` (racemic) [Compound 9e], the concentration for half-maximal inhibition (IC50) with P. falciparum D10 is 45.8 nM; with P. falciparum K1, 9 nM; in the data set on P. falciparum W2 it was 72.1 nM; in the data set with P. falciparum 3D7, 3.7 nM; in the data set with P. falciparum NF54, 15 nM. In data set [4], the “TC50 (μM) KB cell” value came to 19.61 µM. Besides, the results for the CC50 in data set [1], in data set [2] and in data set [3] were 8.65 µM, 8.65 µM and 17.3 µM, respectively. Moreover, the “P. Chabaudi AS (% inhibition at 50 mg/Kg)” value with P. Chabaudi AS came out at 99.5%. Besides, the “antifungal susceptibility value (MIC), Candida albicans MGMI 1” value in the data set on Candida albicans MGMI 1 is given as greater than 32. In addition, in the data set with Candida glabrata MGMI 2, the “antifungal susceptibility value (MIC), Candida glabrata MGMI 2” value was greater than 32. Also, the “antifungal susceptibility value (MIC), Candida krusei ATCC 6258” value in data set [5] is greater than 32. For the same compound, the “antifungal susceptibility value (MIC), Candida parapsilosis ATCC 22019” value in [6] is reported as 16. The “antifungal susceptibility value (MIC), Cryptococcus neoformans MGMI 3” value in data set [7] was 16. Besides, in data set [8], the “antifungal susceptibility value (MIC), Aspergillus flavus ATCC 204304” value is given as greater than 32. Moreover, the “antifungal susceptibility value (MIC), Aspergillus fumigatus MGMI 4” value in data set [9] is given as greater than 32. The “antifungal susceptibility value (MIC), Aspergillus fumigatus MGMI 5” value in [10] is given as greater than 32. Further, the “anti-fungal activity (in words)” value in data set [11] is listed as “lack of anti-fungal activity”.

`FC(F)(F)c1ccc2c(NC(c3cccc(Cl)c3)c3ccc(CN4CCOCC4)c(Cl)c3)ccnc2c1` (racemic) [Compound 9j]: the IC50 with P. falciparum K1 was found to be 375 nM; in the data set with P. falciparum NF54 it was 163 nM.

In the case of `FC(F)(F)c1ccc2c(NC(c3ccc(Cl)cc3)c3ccc(CN4CCCC4)cc3)ccnc2c1` (racemic) [Compound 9k], the IC50 in the data set with P. falciparum D10 is 61.5 nM; in the data set with P. falciparum K1, 30 nM; with P. falciparum W2, 90.5 nM; in the data set with P. falciparum 3D7, 0.2 nM; in the data set on P. falciparum NF54, 20 nM. In addition, the “TC50 (μM) KB cell” value in [4] amounted to 5.49 µM. Further, the CC50 in [1] stood at 12.1 µM; in data set [2], 14.1 µM; in data set [3] it was 24.2 µM. In the data set with P. Chabaudi AS, the “P. Chabaudi AS (% inhibition at 50 mg/Kg)” value turned out to be 99.6%. Further, in the data set on Candida albicans MGMI 1, the “antifungal susceptibility value (MIC), Candida albicans MGMI 1” value came out at 16. In addition, the “antifungal susceptibility value (MIC), Candida glabrata MGMI 2” value with Candida glabrata MGMI 2 is greater than 32. In addition, the “antifungal susceptibility value (MIC), Candida krusei ATCC 6258” value in data set [5] was greater than 32. Moreover, the “antifungal susceptibility value (MIC), Candida parapsilosis ATCC 22019” value in [6] stood at 16. Besides, the “antifungal susceptibility value (MIC), Cryptococcus neoformans MGMI 3” value in data set [7] is 16. Moreover, in data set [8], the “antifungal susceptibility value (MIC), Aspergillus flavus ATCC 204304” value is reported as greater than 32. In addition, the “antifungal susceptibility value (MIC), Aspergillus fumigatus MGMI 4” value in data set [9] was greater than 32. Moreover, the “antifungal susceptibility value (MIC), Aspergillus fumigatus MGMI 5” value in data set [10] was greater than 32. The “anti-fungal activity (in words)” value in data set [11] is recorded as “lack of anti-fungal activity”.

For `Clc1ccc(C(Nc2ccnc3cc(Cl)ccc23)(c2ccccc2)c2ccc(CN3CCCC3)cc2)cc1` (racemic) [Compound 15a], the IC50 in the data set on P. falciparum K1 was found to be 22 nM; with P. falciparum 3D7 it was 3 nM. Also, the values for the CC50 in [1], in data set [2] and in data set [3] were 14.9 µM, 16.7 µM and 18.6 µM, respectively. Further, in the data set with P. Chabaudi AS, the “P. Chabaudi AS (% inhibition at 50 mg/Kg)” value is listed as 99.9%.

On to `CCN(CC)Cc1cc(Nc2ccnc3cc(Cl)ccc23)ccc1O` [Amodiaquine], for which the “β-hematin inhibitory activity IC50” value in data set [12] was 0.79 ± 0.01 Molar equivalents of compound relative to hemin.

For the compound `Clc1ccccc1C(c1ccccc1)(c1ccccc1)n1ccnc1` [CLT, clotrimazole, reference compound], the “TC50 (μM) KB cell” value in [4] turned out to be 88.1 µM. Moreover, in the data set with P. Chabaudi AS, the “P. Chabaudi AS (% inhibition at 50 mg/Kg)” value is 6.0%. In addition, in the data set on P. Berghei ANKA, the “activity against P. berghei in vivo” value is given as “not active”. For the same compound, the antifungal susceptibility value (MIC), Candida albicans MGMI 1 in the data set with Candida albicans MGMI 1 was 0.03 mg/L. In addition, in data set [6], the antifungal susceptibility value (MIC), Candida parapsilosis ATCC 22019 was determined as 2 mg/L. For the same compound, the antifungal susceptibility value (MIC), Cryptococcus neoformans MGMI 3 in data set [7] was found to be 2 mg/L. For the same compound, in data set [8], the antifungal susceptibility value (MIC), Aspergillus flavus ATCC 204304 worked out at 4 mg/L. In [9], this compound yielded an antifungal susceptibility value (MIC), Aspergillus fumigatus MGMI 4 of 4 mg/L. Moreover, in data set [10], the antifungal susceptibility value (MIC), Aspergillus fumigatus MGMI 5 amounted to 4 mg/L.

`CCN(CC)CCCC(C)Nc1ccnc2cc(Cl)ccc12` (centres unmarked) [CQ, chloroquine, reference compound]: the IC50 was found to be 22 nM with P. falciparum D10; 260 nM with P. falciparum K1; 280 nM with P. falciparum W2; 10 nM in the data set on P. falciparum 3D7; 7 nM in the data set on P. falciparum NF54. The “TC50 (μM) KB cell” value in [4] was 207.0 µM. In the data set with P. Chabaudi AS (10 mg/Kg), the “P. Chabaudi AS (% inhibition)” value is on record as 100 (10 mg/Kg) %. Further, the “β-hematin inhibitory activity IC50” value in data set [12] is listed as 0.91 ± 0.23 Molar equivalents of compound relative to hemin.

Usually MIC stands for the least concentration at which growth counts as inhibited. Low values mean inhibition by little substance, high ones a need for much substance. Consider `CCC(C)n1ncn(-c2ccc(N3CCN(c4ccc(OCC5COC(Cn6cncn6)(c6ccc(Cl)cc6Cl)O5)cc4)CC3)cc2)c1=O` (centres unmarked) [ITRA, itraconazole, reference compound], for which the antifungal susceptibility value (MIC), Candida albicans MGMI 1 in the data set with Candida albicans MGMI 1 was found to be 0.25 mg/L. The same compound returned an antifungal susceptibility value (MIC), Candida glabrata MGMI 2 with Candida glabrata MGMI 2 of 32 mg/L. In data set [5], this compound registered an antifungal susceptibility value (MIC), Candida krusei ATCC 6258 of 0.25 mg/L. Also, the antifungal susceptibility value (MIC), Candida parapsilosis ATCC 22019 in data set [6] stood at 0.125 mg/L. The same compound registered an antifungal susceptibility value (MIC), Cryptococcus neoformans MGMI 3 in data set [7] of 0.25 mg/L. The same compound gave an antifungal susceptibility value (MIC), Aspergillus flavus ATCC 204304 in data set [8] of 0.06 mg/L. Further, the antifungal susceptibility value (MIC), Aspergillus fumigatus MGMI 4 in [9] is 0.06 mg/L. In [10] (Aspergillus fumigatus, MGMI5, strain description in text, itraconazole resistant isolate), the MIC was greater than 16 mg/L. The compound also returned an antifungal susceptibility value (MIC), Aspergillus fumigatus MGMI 5 in data set [10] greater than 32 mg/L.
